Data published in patent US20260216138A1, “IDENTIFICATION OF OTUD7B INHIBITOR 7BI AND ITS APPLICATION IN REDUCING GROWTH OF NSCLC AND LEUKEMIA CELLS” (The University of North Carolina at Chapel Hill, priority 2023, published 2026).

Columns and labels:
[1] = tested on: GβL binding with mTORC2 components (Sin1, Rictor, mTOR); assay: GβL binding with mTORC2 components (HA-IP, HEK293 cells); assay type: cell-based; conditions: indicated doses of 7Bi, 16 hrs
Protocol: Cells were harvested and lysed in EBC buffer (50 mM Tris pH 7.5, 120 mM NaCl, 0.5% NP-40) supplemented with protease inhibitor cocktail (EDTA-free, mini-tablet) (Bimake) and phosphatase inhibitor cocktail (Bimake) by rotating in the cold room for 10 min followed by high-speed centrifugation at 4° C. The protein concentrations in supernatants of whole cell lysates were measured by NanoDrop OneC using the Bio-Rad Bradford protein assay reagent. Equal amounts of whole cell lysates were resolved on SDS-PAGE and immunoblotted with indicated antibodies. For immunoprecipitation analysis, 1 mg of total cell lysate was incubated with the indicated beads for 3-4 hr at 4° C. The recovered immuno-complexes were washed thoroughly three times with NETN buffer (20 mM Tris, pH 8.0, 100 mM NaCl, 1 mM EDTA and 0.5% NP-40) before being resuspended in SDS sample buffer and resolved on SDS-PAGE and immunoblotted with indicated antibodies.

USP21 = target: T1, USP21 (Homo sapiens, UniProt Q9UK80); assay: In vitro USP21 deubiquitination assay, K11-linked di-ub cleavage; assay type: biochemical; conditions: 80 nM USP21, 10 min
T1 construct: USP21 (residues 196-565); GST (N, cleaved yes); made in house; host or cells: E. coli BL21-Codon Plus (DE3)-RIL
T1 sequence (Q9UK80 196-565): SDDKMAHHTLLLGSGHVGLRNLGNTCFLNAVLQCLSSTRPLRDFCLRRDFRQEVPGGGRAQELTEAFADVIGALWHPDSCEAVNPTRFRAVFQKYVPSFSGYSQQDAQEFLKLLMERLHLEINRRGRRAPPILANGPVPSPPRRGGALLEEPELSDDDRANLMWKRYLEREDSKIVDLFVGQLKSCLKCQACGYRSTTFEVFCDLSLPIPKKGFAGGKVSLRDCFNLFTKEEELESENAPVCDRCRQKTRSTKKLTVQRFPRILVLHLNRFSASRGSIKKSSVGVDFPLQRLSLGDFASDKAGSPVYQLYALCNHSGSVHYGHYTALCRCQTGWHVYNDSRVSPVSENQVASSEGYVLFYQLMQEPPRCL
From the text: OTUD7B (residues 56-446), OTUD7A (residues 1-462), USP21 (residues 196-565), and USP9X (residues 1551-1970) proteins were expressed in E. Coli BL21-Codon Plus (DE3)-RIL cells. Through an N-terminal GST tag, the DUBs were purified by affinity chromatography using glutathione sepharose 4B (GS4B) resin. Following the liberation of the DUB from the GST tag. the DUBs were subjected to size exclusion chromatography (SEC). To form the K11-linked di-ub, individual ubiquitins (K11R-substituted donor Ub and ΔGG acceptor ubiquitin) were purified and fluorescently-labeled on an N-terminal cysteine using either Cy3- (donor) or Cy5-maleimide (acceptor). The different ubiquitins were then added to a mixture containing UBA1, UBE2S, and MgATP to form di-ub. After an overnight incubation at room temperature, UBE2S was removed by cation-exchange chromatography and the di-ub was purified by SEC. These proteins were used to monitor DUB activity in the presence or absence of the various inhibitors. The inhibitors were incubated with DUBs in a reaction buffer (20 mM Hepes pH=8.0, 200 mM NaCl, 0.25 mg/mL BSA and 0.005% Tween-20) for 5 min at room temperature and then 0.5 uM fluorescently-labeled di-ub (K11-linked) was added to start the reaction. 5×SDS-PAGE loading buffer was used to quench the reaction at the indicated time point. […] Mono-ubiquitin was quantified to generate an IC50 value. […]

A549 cells = assay: Colony formation / growth of A549 cells; assay type: cell-based; conditions: treated once for 10 days
Protocol: 500 cells from OTUD7B depleted A549 cells were seeded into each well of 6-well plates and cultured in the 37° C. incubator with 5% CO2 for 10-15 days until formation of visible colonies. Triplicates were performed. To test the effect of a given inhibitor on colony formation ability, 800 cells from A549, H520 and H1299 cell lines were seeded into each well of 6-well plates, respectively. Each inhibitor was added at indicated concentration the next day. Colonies were counted after 10 days of treatment. The colony staining method was as described. […] Colony numbers were counted manually. […]
2,000 cells from indicated NSLC cell lines were seeded into each well of 96-well plates. Cell viability was measured 3 days post-treatment using MTT assays following manufacturer's instruction. […] Inhibitor was added the next day at indicated concentration and cell viability was measured after 3-day treatment. For cell proliferation assays in THP1, K562 and HL60 cell lines, 1×10^6 cells from each indicated cell line were seeded in 12.5 cm2 cell culture flask and cells were counted by hemocytometer under microscope at indicated time to monitor cell proliferation. […] Inhibitor was added the next day at indicated concentrations and cell number was counted after 3 days treatment. […]

Akt-pS473 = Akt-pS473 immunoblot in HEK293 cells; assay type: cell-based
Protocol: Cells were harvested and lysed in EBC buffer (50 mM Tris pH 7.5, 120 mM NaCl, 0.5% NP-40) supplemented with protease inhibitor cocktail (EDTA-free, mini-tablet) (Bimake) and phosphatase inhibitor cocktail (Bimake) by rotating in the cold room for 10 min followed by high-speed centrifugation at 4° C. The protein concentrations in supernatants of whole cell lysates were measured by NanoDrop OneC using the Bio-Rad Bradford protein assay reagent. Equal amounts of whole cell lysates were resolved on SDS-PAGE and immunoblotted with indicated antibodies. For immunoprecipitation analysis, 1 mg of total cell lysate was incubated with the indicated beads for 3-4 hr at 4° C. The recovered immuno-complexes were washed thoroughly three times with NETN buffer (20 mM Tris, pH 8.0, 100 mM NaCl, 1 mM EDTA and 0.5% NP-40) before being resuspended in SDS sample buffer and resolved on SDS-PAGE and immunoblotted with indicated antibodies. […]

- inhibition of USP21 (USP21): failed to inhibit
Structure (SMILES): Cc1cc(NC(=O)c2cnn(C)c2C(=O)Nc2cc(C)nn2C2CCCC2)n(C2CCCC2)n1 [7Bi]
- GβL binding with mTORC2 components (Sin1, Rictor, mTOR) [1]: attenuated GβL binding with mTORC2 components
- cell growth (A549 cells): reduced growth
- downregulation of Akt-pS473 signals by purified 7Bi (Akt-pS473; HPLC purified 7Bi (~99% purity) compared with 90% purity): retained its ability
- suppression of Akt-pS473 (Akt-pS473; indicated doses, 16 hrs): efficiently suppressed Akt-pS473
